The values below come from patent US6686345B2, “DNA-cleaving antitumor agents” (Research Development Foundation, priority 1998, dated 2004).

Entries after “also recorded” stand apart in the source; their conditions may differ.

For one data set, the system named is Supercoiled DNA. As to the kind of experiment: DNA cleavage by heterocyclic variants (KeAZB series). In kind it is biochemical. How it is done: The gel depicted in FIG. 3 represents the results of the DNA cleavage experiment with KeAZB002. Supercoiled DNA (50 uM in 50 mM TRIS phosphate buffer, pH 8) was incubated with 0 (lanes 1, 5), 1 (lanes 2, 6), 100 (lanes 3, 7), or 1000 (lane 4) uM of KeAZB002 for 24 hours at 20° C. Samples for lanes 5-8 were loaded onto the agarose gel, whereas samples for lanes 1-4 were heated at 70° C. for 90 sec. prior to loading onto the gel. After electrophoresis at 60 V for 2 hrs, the DNA products were visualized with ethidium bromide staining and UV transillumination.

Data set [1] has as its system various cancer cell lines. As to the kind of experiment: In vitro cytotoxicity of KeAZB002 on various cancer cell lines. In kind it is cell-based. The settings on record: variety of cancer cell types, FIG. 16.
In data set [2] the test system is A549 non-small cell lung cancer cells. As to the kind of experiment: In vivo evaluation in SCID mice implanted with A549 cells.
Data set [3] can be described thus: Stability of KeAZB002 in aqueous solution. In kind it is physicochemical.

For the compound `Cn1c(C#Cc2ccccc2)[n+](CC#Cc2ccccc2)c2ccccc21.F[B-](F)(F)F` [KeAZB002, N-phenylpropargyl-N-methyl-2-phenylethynylbenzimidazolium tetrafluoroborate], in the data set with Supercoiled DNA, the “DNA cleavage (in words)” value is reported as “cleaves DNA at micromolar concentrations; also recorded: cleaves the DNA, producing frank single strand breaks; also recorded: strongly temperature dependent”. Besides, the “in vitro cytotoxicity (in words)” value in data set [1] is “shows activity against several tumor cell lines in vitro; also recorded: cytotoxic to a variety of cancer cell types”. Besides, in data set [2], the “antitumor activity in vivo (in words)” value is “demonstrates antitumor activity in vivo; also recorded: modest antitumor activity”. For the same compound, in data set [2] (seventeen days, versus control), the tumor weight result was “decreased consistently in comparison to control”. Besides, the “stability in basic aqueous solution” value in data set [3] (basic aqueous solution) is reported as “undergoes a series of reactions”. In data set [3] (water at neutral pH), the stability in water result is on record as “stable indefinitely”.
